Measurements reported in publication PMC5439695 (PLoS ONE, 2017).
pEC50: −log10 of the molar value. Like-named read-outs stand apart in the source and are kept apart here.

Legend:
[1] = system: HEK293 and HepG2 cell lines
NRF2 = conditions: cited from earlier work; for Nrf2 TF activity (in words): Tox21 assay
HepG2 cells [2] = conditions: HepG2 glo
HEK293 cells [3] = conditions: HEK293 flor
HepG2 cells [4] = experiment: CellTox Green Cytotoxicity Assay (flor) in HepG2, HepG2[flor]; type: cell-based, human; conditions: HepG2 flor; for pEC50: Homo sapiens, given as negative log-scale values;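 as to hepg2 flor emax 0: percent activity versus DMSO-only wells with baseline rescaled to 0%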;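 as to hepg2 flor emax 40: percent activity versus DMSO-only wells with baseline rescaled to 0%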
HEK293 cells [5] = conditions: HEK293 glo
HEK293 cells [6] = experiment: cells; conditions: Homo sapiens
HEK293 cells [7] = experiment: cells; conditions: Homo sapiens; remark: listed apart in the source
HepG2 cells [8] = experiment: cells; conditions: Homo sapiens

In the case of CC(C)(O)C(=O)Nc1ccc([N+](=O)[O-])c(C(F)(F)F)c1 [Hydroxyflutamide, reference compound], the “cytotoxicity kinetics activity profile in the four real-time cytotoxicity assays” value (“cytotoxicity kinetics activity profile” for short) ([1]; human) is listed as “active only in HEK293[glo]” and the “Nrf2 TF activity (in words)” value (NRF2) is listed as “increased Nrf2 TF activity”.
In the case of CC/C(=C(/CC)c1ccc(O)cc1)c1ccc(O)cc1 [Diethylstilbestrol, reference compound], the “cytotoxicity kinetics activity profile” value ([1]; human) is given as “active only in HEK293[glo]” and the “Nrf2 TF activity (in words)” value (NRF2) is given as “increased Nrf2 TF activity”.
For CC(C)C(=O)Nc1ccc([N+](=O)[O-])c(C(F)(F)F)c1 [Flutamide, reference compound], the “cytotoxicity kinetics activity profile” value ([1]; human) is given as “active only in HEK293[glo]” and the “Nrf2 TF activity (in words)” value (NRF2) is given as “increased Nrf2 TF activity”.
In the case of CC(=O)O[C@H]1CC[C@@]2(C)C(=CC[C@@H]3[C@@H]2CC[C@]2(C)C(C(C)=O)=CC[C@@H]32)C1 [Dehydropregnenolone acetate], the “increase NRF2 TF activity, POD potency” value (NRF2) is listed as 4.85 log10(M)*-1.
For O=C(OCCN1CCOCC1)c1cccnc1Nc1cccc(C(F)(F)F)c1 [Morniflumate, reference compound], the “increase NRF2 TF activity, POD potency” value (NRF2) is given as 4.54 log10(M)*-1.
In the case of CC(C)(c1ccc(O)cc1)c1ccc(O)cc1 [Bisphenol A], the “cytotoxicity kinetics activity profile” value ([1]; human) is listed as “active only in HEK293[glo]” and the “Nrf2 TF activity (in words)” value (NRF2) is listed as “increased Nrf2 TF activity”.
In the case of O=C(OC1CCCCC1)c1ccccc1C(=O)OC1CCCCC1 [Dicyclohexyl phthalate], the “increase NRF2 TF activity, POD potency” value (NRF2) is given as 4.18 log10(M)*-1.
For O.[Br-].[Br-].c1cc[n+]2c(c1)-c1cccc[n+]1CC2 [Diquat dibromide monohydrate], the “increase NRF2 TF activity, POD potency” value (NRF2) is given as 5.17 log10(M)*-1.
In the case of CC12CC1(C)C(=O)N(c1cc(Cl)cc(Cl)c1)C2=O (stereo not drawn) [procymidone, reference compound], the “cytotoxicity kinetics activity profile” value [1] is given as “no activity in all four real-time cytotoxicity assays” and the “Nrf2 TF activity (in words)” value (NRF2) is given as “Weak Nrf2 activity”.
In the case of Phenol, isopropylated, phosphate (3:1), the “increase NRF2 TF activity, POD potency” value (NRF2) is listed as 4.21 log10(M)*-1.
With O=S1(=O)OC(c2ccc(O)cc2)(c2ccc(O)cc2)c2ccccc21 [Phenol red] the hepg2_glo_auc (HepG2 cells [2]) was 0.5829, the hepg2_glo_bin (HepG2 cells [2]; kinetics bin) was “inconclusive” and the hepg2_glo_emax_0 (HepG2 cells [2]; time point 0) was -25.8612. It also gave a hepg2_glo_pod_0 (HepG2 cells [2]; time point 0) of -4.428, a hepg2_glo_wauc_0 (HepG2 cells [2]; time point 0) of 0.7068 and a hepg2_glo_emax_8 (HepG2 cells [2]; time point 8) of 0. The hepg2_glo_pod_8 (HepG2 cells [2]; time point 8) was -4.417, the hepg2_glo_wauc_8 (HepG2 cells [2]; time point 8) was 0 and the hepg2_glo_emax_16 (HepG2 cells [2]; time point 16) was 0. It also gave a hepg2_glo_pod_16 (HepG2 cells [2]; time point 16) of -4.417, a hepg2_glo_wauc_16 (HepG2 cells [2]; time point 16) of 0 and a hepg2_glo_emax_24 (HepG2 cells [2]; time point 24) of 0. It also gave a hepg2_glo_pod_24 (HepG2 cells [2]; time point 24) of -4.417, a hepg2_glo_wauc_24 (HepG2 cells [2]; time point 24) of 0 and a hepg2_glo_emax_32 (HepG2 cells [2]; time point 32) of 0. For the same molecule, the hepg2_glo_pod_32 (HepG2 cells [2]; time point 32) was -4.417, the hepg2_glo_wauc_32 (HepG2 cells [2]; time point 32) was 0 and the hepg2_glo_emax_40 (HepG2 cells [2]; time point 40) was 0. The hepg2_glo_pod_40 (HepG2 cells [2]; time point 40) was -4.417, the hepg2_glo_wauc_40 (HepG2 cells [2]; time point 40) was 0 and the hek293_flor_auc (HEK293 cells [3]) was 0. The hek293_flor_time (HEK293 cells [3]) was 48, the hek293_flor_bin (HEK293 cells [3]; kinetics bin) was “inactive” and the hek293_flor_emax_0 (HEK293 cells [3]; time point 0) was 0. For the same molecule, the hek293_flor_pod_0 (HEK293 cells [3]; time point 0) was -4.417, the hek293_flor_wauc_0 (HEK293 cells [3]; time point 0) was 0 and the hek293_flor_emax_8 (HEK293 cells [3]; time point 8) was 0. For the same molecule, the hek293_flor_pod_8 (HEK293 cells [3]; time point 8) was -4.417, the hek293_flor_wauc_8 (HEK293 cells [3]; time point 8) was 0 and the hek293_flor_emax_16 (HEK293 cells [3]; time point 16) was 0. For the same molecule, the hek293_flor_pod_16 (HEK293 cells [3]; time point 16) was -4.417, the hek293_flor_wauc_16 (HEK293 cells [3]; time point 16) was 0 and the hek293_flor_emax_24 (HEK293 cells [3]; time point 24) was 0. The hek293_flor_pod_24 (HEK293 cells [3]; time point 24) was -4.417, the hek293_flor_wauc_24 (HEK293 cells [3]; time point 24) was 0 and the hek293_flor_emax_32 (HEK293 cells [3]; time point 32) was 0. The hek293_flor_pod_32 (HEK293 cells [3]; time point 32) was -4.417, the hek293_flor_wauc_32 (HEK293 cells [3]; time point 32) was 0 and the hek293_flor_emax_40 (HEK293 cells [3]; time point 40) was 0. It also gave a hek293_flor_pod_40 (HEK293 cells [3]; time point 40) of -4.417, a hek293_flor_wauc_40 (HEK293 cells [3]; time point 40) of 0 and a hepg2_flor_auc (HepG2 cells [4]) of 0. The hepg2_flor_time (HepG2 cells [4]) was 48, the hepg2_flor_bin (HepG2 cells [4]; kinetics bin) was “inactive” and the hepg2_flor_emax_0 (HepG2 cells [4]; time point 0) was 0. It also gave a hepg2_flor_pod_0 (HepG2 cells [4]; time point 0) of -4.417, a hepg2_flor_wauc_0 (HepG2 cells [4]; time point 0) of 0 and a hepg2_flor_emax_8 (HepG2 cells [4]; time point 8) of 0. For the same molecule, the hepg2_flor_pod_8 (HepG2 cells [4]; time point 8) was -4.417, the hepg2_flor_wauc_8 (HepG2 cells [4]; time point 8) was 0 and the hepg2_flor_emax_16 (HepG2 cells [4]; time point 16) was 0. The hepg2_flor_pod_16 (HepG2 cells [4]; time point 16) was -4.417, the hepg2_flor_wauc_16 (HepG2 cells [4]; time point 16) was 0 and the hepg2_flor_emax_24 (HepG2 cells [4]; time point 24) was 0. For the same molecule, the hepg2_flor_pod_24 (HepG2 cells [4]; time point 24) was -4.417, the hepg2_flor_wauc_24 (HepG2 cells [4]; time point 24) was 0 and the hepg2_flor_emax_32 (HepG2 cells [4]; time point 32) was 0. It also gave a hepg2_flor_pod_32 (HepG2 cells [4]; time point 32) of -4.417, a hepg2_flor_wauc_32 (HepG2 cells [4]; time point 32) of 0 and a hepg2_flor_emax_40 (HepG2 cells [4]; time point 40) of 0. It also gave a hepg2_flor_pod_40 (HepG2 cells [4]; time point 40) of -4.417, a hepg2_flor_wauc_40 (HepG2 cells [4]; time point 40) of 0 and a pEC50 (HepG2 cells [4]; time point 0, read-out: hepg2_flor_ec50_0) of under 4.42. For the same molecule, the pEC50 (HepG2 cells [4]; time point 8, read-out: hepg2_flor_ec50_8) was under 4.42, the pEC50 (HepG2 cells [4]; time point 16, read-out: hepg2_flor_ec50_16) was under 4.42 and the pEC50 (HepG2 cells [4]; time point 24, read-out: hepg2_flor_ec50_24) was under 4.42. For the same molecule, the pEC50 (HepG2 cells [4]; time point 32, read-out: hepg2_flor_ec50_32) was under 4.42, the pEC50 (HepG2 cells [4]; time point 40, read-out: hepg2_flor_ec50_40) was under 4.42 and the hek293_glo_auc (HEK293 cells [5]) was 1.203. The hek293_glo_time (HEK293 cells [5]) was 40, the hek293_glo_bin (HEK293 cells [5]; kinetics bin) was “no_cv (no_cv: time > 40)” and the hek293_glo_emax_0 (HEK293 cells [5]; time point 0) was -33.7. For the same molecule, the hek293_glo_pod_0 (HEK293 cells [5]; time point 0) was -4.507, the hek293_glo_wauc_0 (HEK293 cells [5]; time point 0) was 0.8079 and the hek293_glo_emax_8 (HEK293 cells [5]; time point 8) was -27.7816. For the same molecule, the hek293_glo_pod_8 (HEK293 cells [5]; time point 8) was -4.452, the hek293_glo_wauc_8 (HEK293 cells [5]; time point 8) was 0.7338 and the hek293_glo_emax_16 (HEK293 cells [5]; time point 16) was -27.6507. It also gave a hek293_glo_pod_16 (HEK293 cells [5]; time point 16) of -4.4502, a hek293_glo_wauc_16 (HEK293 cells [5]; time point 16) of 0.732 and a hek293_glo_emax_24 (HEK293 cells [5]; time point 24) of 0. It also gave a hek293_glo_pod_24 (HEK293 cells [5]; time point 24) of -4.417, a hek293_glo_wauc_24 (HEK293 cells [5]; time point 24) of 0 and a hek293_glo_emax_32 (HEK293 cells [5]; time point 32) of 0. It also gave a hek293_glo_pod_32 (HEK293 cells [5]; time point 32) of -4.417, a hek293_glo_wauc_32 (HEK293 cells [5]; time point 32) of 0 and a hek293_glo_emax_40 (HEK293 cells [5]; time point 40) of 0. For the same molecule, the hek293_glo_pod_40 (HEK293 cells [5]; time point 40) was -4.417, the hek293_glo_wauc_40 (HEK293 cells [5]; time point 40) was 0 and the pEC50 (HEK293 cells [6]; HEK293, read-out: hek293_glo_ec50_0) was 4.59. For the same molecule, the pEC50 (HEK293 cells [6]; HEK293, read-out: hek293_glo_ec50_8) was 4.59, the pEC50 (HEK293 cells [6]; HEK293, read-out: hek293_glo_ec50_16) was 4.59 and the pEC50 (HEK293 cells [6]; HEK293, read-out: hek293_glo_ec50_24) was under 4.42. The pEC50 (HEK293 cells [6]; HEK293, read-out: hek293_glo_ec50_32) was under 4.42, the pEC50 (HEK293 cells [6]; HEK293, read-out: hek293_glo_ec50_40) was under 4.42 and the pEC50 (HEK293 cells [7]; HEK293, read-out: hek293_flor_ec50_0) was under 4.42. For the same molecule, the pEC50 (HEK293 cells [7]; HEK293, read-out: hek293_flor_ec50_8) was under 4.42, the pEC50 (HEK293 cells [7]; HEK293, read-out: hek293_flor_ec50_16) was under 4.42 and the pEC50 (HEK293 cells [7]; HEK293, read-out: hek293_flor_ec50_24) was under 4.42. For the same molecule, the pEC50 (HEK293 cells [7]; HEK293, read-out: hek293_flor_ec50_32) was under 4.42, the pEC50 (HEK293 cells [7]; HEK293, read-out: hek293_flor_ec50_40) was under 4.42 and the information ([1]; any activity in any time point/assay) was 1. It also gave a pEC50 (HepG2 cells [8]; HepG2, read-out: hepg2_glo_ec50_0) of 4.59, a pEC50 (HepG2 cells [8]; HepG2, read-out: hepg2_glo_ec50_8) of under 4.42 and a pEC50 (HepG2 cells [8]; HepG2, read-out: hepg2_glo_ec50_16) of under 4.42. It also gave a pEC50 (HepG2 cells [8]; HepG2, read-out: hepg2_glo_ec50_24) of under 4.42, a pEC50 (HepG2 cells [8]; HepG2, read-out: hepg2_glo_ec50_32) of under 4.42 and a pEC50 (HepG2 cells [8]; HepG2, read-out: hepg2_glo_ec50_40) of under 4.42.
